Assay results from patent US20220289719A1, “HETEROCYCLIC COMPOUNDS AS MNK INHIBITORS” (NANJING INNOCARE PHARMA TECH CO., LTD., priority 2017, published 2022).
Where a name gives a salt, the structure may show the parent alone.

Target: T1, Human recombinant full-length MNK1 protein (Homo sapiens, UniProt Q9BUB5)
T1 construct: Human recombinant full-length MNK1 protein; purchased Thermo PR9138A
Experiment: MNK1 inhibitory activity assay (ADP-Glo in vitro kinase assay)
Format: biochemical
Details: 10 concentration points
Experimental: MNK1 Inhibitory Activity Assay: Evaluation of the effects of compounds of the invention on […] (MNK1) activity using in vitro kinase assays. The experimental methods are summarized as follows: The in vitro activity of MNK1 was determined by measuring the level of ADP produced in the kinase reaction using the ADP-Glo Kinase Assay Kit. The reaction buffer consisted of the following components: 50 mM HEPES, pH 7.5, 10 mM MgCl2, 1 mM EGTA, 0.01% Brij35. Human recombinant full-length MNK1 protein (Thermo, Cat. No. PR9138A) was diluted with a reaction buffer to a 3.13 ng/uL kinase solution. The substrate reaction solution consisted of a substrate diluted to 0.75 mg/ml in reaction buffer ([…], available from […] Domestic Company), 2250 uM ATP, the ADP-Glo reagent and kinase assay solution from Promega kit (Promega, V9102). […] If the compound IC50 value is very low, the initial concentration of the compound can be lowered. To a 384-well assay plate (Thermo, Cat. No. 264706) were added 1 uL of compound solution and 2 uL of MNK1 kinase solution. The mixture was mixed well and incubated for 30 minutes at room temperature; then 2 uL of substrate reaction solution was added, the reaction mixture was incubated for 120 minutes at room temperature. The reaction was terminated after an equal volume of 5uLADP-Glo solution was added, and the remaining ATP was completely consumed. After mixing for 60 minutes at room temperature, 10 ul of the kinase assay solution was added, and the mixture was uniformly mixed, and allowed to stand at room temperature for 40 minutes in the dark. The detection solution converts ADP into new ATP through coupled luciferase/luciferin, and ATP is converted into optical signal by Ultr-GloTM luciferase, which can be detected by Envision. The intensity of the light signal is proportional correlated with the amount of ADP produced in the kinase reaction, therefore, the activity of MNK1 kinase can be determined. In this experiment, the group without protein was used as a negative control (100% inhibition). The group with protein but without compounds was used as a positive control (0% inhibition).

T1 sequence (Q9BUB5 whole entry): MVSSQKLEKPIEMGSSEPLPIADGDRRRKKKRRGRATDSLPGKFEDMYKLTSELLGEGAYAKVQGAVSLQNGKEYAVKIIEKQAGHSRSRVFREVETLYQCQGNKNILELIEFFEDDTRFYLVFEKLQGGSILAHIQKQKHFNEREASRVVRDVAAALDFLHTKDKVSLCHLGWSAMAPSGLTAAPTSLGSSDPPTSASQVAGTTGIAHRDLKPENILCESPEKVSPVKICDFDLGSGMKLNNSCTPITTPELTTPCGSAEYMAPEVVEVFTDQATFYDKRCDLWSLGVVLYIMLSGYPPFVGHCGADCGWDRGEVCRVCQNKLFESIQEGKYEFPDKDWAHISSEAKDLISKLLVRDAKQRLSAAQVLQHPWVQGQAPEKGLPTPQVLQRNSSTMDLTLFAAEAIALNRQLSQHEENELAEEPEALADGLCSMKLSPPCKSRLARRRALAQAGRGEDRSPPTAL

IC50 | SMILES
0.0305 µM | COc1c(Nc2cc(NC(=O)C3CC3)ncn2)ccc2c1CN(C)C2=O [Compound 72, 5-((6-(Cyclopropionamido)pyrimidin-4-yl)amino)-4-methoxy-2-methylisodihydroindol-1-one]
0.187 µM | COc1cc2[nH]ncc2cc1Nc1ncncc1OCCN1CCOCC1 [Compound 55, 5-(5-(2-(4-Morpholine)ethoxy)pyrimidin-4-yl) amino)-6-methoxy-1H-indazole formate]
0.0209 µM | COc1c(Nc2ncnc3[nH]ccc23)ccc2c1CNC2=O [Compound 79, 5-((7H-Pyrrolo[2,3-d]pyrimidin-4-yl)amino)-4-methoxyisoindolin-1-one]
0.128 µM | COc1c(N)ncnc1Nc1ccc2c(c1OC)CNC2=O [Compound 71, 5-((6-Amino-5-methoxypyrimidin-4-yl)amino)-4-methoxyisoindolin-1-one]
0.0344 µM | COCCOc1cncnc1Nc1ccc2c(c1OC)CNC2=O [Compound 75, 5-((5-(2-Methoxyethoxy)pyrimidin-4-yl)amino)-4-methoxyisodihydroindole-1-one]
0.103 µM | COc1c(Nc2ncnc3[nH]ncc23)ccc2c1CNC2=O [Compound 81, 5-((1H-Pyrazolo[3,4-d]pyrimidin-4-yl)amino)-4-methoxyisoindolin-1-one]
0.9 µM | COc1c(Nc2ncncc2OCCN(C)C)ccc2c1CNC2=O [Compound 77, 5-((5-(2-(Dimethylamino)ethoxy)pyrimidin-4-yl)amino)-4-methoxyisodihydroindole-1-one dicarboxylate]
0.323 µM | COc1cc2[nH]ncc2cc1Nc1ncncc1Nc1ccccc1 [Compound 57, 5-(5-Anilinopyrimidin-4-yl) amino)-6-methoxy-1H-indazole formate]
0.0384 µM | COc1cncnc1Nc1ccc2c(c1OC)CNC2=O [Compound 74, 5-((5-Methoxypyrimidin-4-yl)amino)-4-methoxyisodihydroindole-1-one]
0.0197 µM | COc1c(Nc2ncncc2OCCO)ccc2c1CNC2=O [Compound 78, 5-((5-(2-Hydroxyethoxy)pyrimidin-4-yl)amino)-4-methoxyisoindolin-1-one]
0.0273 µM | COc1c(Nc2cc(Nc3ncccn3)ncn2)ccc2c1CNC2=O [Compound 69, 5-((6-(Pyrimidin-2-ylamino)pyrimidin-4-yl)amino)-4-methoxyisodihydroindol-1-one]
0.197 µM | COc1cc(Nc2cc3cn[nH]c3cc2OC)ncn1 [Compound 51, 5-(6-Methoxypyrimidin-4-yl) amino)-6-methoxy-1H-indazole formate]
0.0117 µM | COc1c(Nc2ncnc3[nH]cnc23)ccc2c1CNC2=O [Compound 80, 5-((9H-Purin-6-yl)amino)-4-methoxyisoindolin-1-one]
0.254 µM | COc1nc2[nH]ncc2cc1Nc1cc(NC(C)=O)ncn1 [Compound 50, 5-(6-(Acetamido)pyrimidin-4-yl) amino)-6-methoxy-1H-pyrazolo [3,4-b] pyridine formate]
1.05 µM | COc1cc2[nH]ncc2cc1Nc1cc(NS(=O)(=O)C2CC2)ncn1 [Compound 49, 5-((6-(Cyclopropanesulfonylamino)pyrimidin-4-yl)amino)-6-methoxy-1H-indazole]
0.154 µM | CNc1cncnc1Nc1ccc2c(c1OC)CNC2=O [Compound 82, 5-((5-Methylaminopyrimidin-4-yl)amino)-4-methoxyisodihydroindole-1-one formate]
0.572 µM | COc1c(Nc2ncncc2OCCN2CCOCC2)ccc2c1CNC2=O [Compound 76, 5-((5-(2-(4-morpholin)ethoxy)pyrimidin-4-yl)amino)-4-methoxyisodihydroindol-1-one formate]
0.0791 µM | COc1cc2[nH]ncc2cc1Nc1ncnc(N)c1C [Compound 47, 5-((6-Amino-5-methylpyrimidin-4-yl)amino)-6-methoxy-1H-indazole]

Second part, the compound before the results:

SMILES | IC50
CCOC(=O)c1c(N)ncnc1Nc1cc2cnn(C(=O)OC(C)(C)C)c2cc1OC [Compound 35, 1-tert-Butoxycarbonyl-5-((6-amino-5-ethoxycarbonylpyrimidin-4-yl)amino)-6-methoxyindazole] | 0.0325 µM
COc1cc2[nH]ncc2cc1Nc1cc(Nc2ncccn2)ncn1 [Compound 27, 5-(6-(Pyrimidin-2-ylamino)pyrimidin-4-ylamino)-6-methoxy-1H-indazole] | 0.0438 µM
COc1cc2[nH]ncc2cc1Nc1cc(NC(=O)c2ccccc2)ncn1 [Compound 10, 5-(6-benzoylaminopyrimidin-4-ylamino)-6-methoxy-1H-indazole] | 0.0238 µM
COc1cc2[nH]ncc2cc1Nc1cc(NC(=O)C(C)C)ncn1 [Compound 19, N-(6-((6-Methoxy-1H-indazol-5-yl)amino)pyrimidin-4-yl)isobutyramide] | 0.045 µM
COc1cc2[nH]ncc2cc1Nc1cc(NC(C)=O)ncn1 [Compound 2, 5-(6-Acetylaminopyrimidin-4-ylamino)-6-methoxy-1H-indazole] | 0.0595 µM
CCOC(=O)c1c(NC(C)=O)ncnc1Nc1cc2cn[nH]c2cc1OC [Compound 38, 5-((6-(Acetylamino)-5-ethoxycarbonylpyrimidin-4-yl)amino)-6-methoxy-1H-indazole] | 0.0119 µM
COc1cc2[nH]ncc2cc1Nc1ncnc(N)c1F [Compound 45, 5-((6-Amino-5-fluoropyrimidin-4-yl)amino)-6-methoxy-1H-indazole] | 0.0353 µM
COc1cc2[nH]ncc2cc1Nc1ncnc(N)c1C1=CCC(C(=O)N(C)C)CC1 (centres unmarked) [Compound 34, 4-(4-Amino-6-((6-methoxy-1H-indazol-5-yl)amino)pyrimidin-5-yl)-N,N-dimethylcyclohex-3-ene-1-carboxamide formate] | 0.45 µM
COc1cc2[nH]ncc2cc1Nc1ncnc(N)c1C1=CCC(C(=O)O)CC1 (centres unmarked) [Compound 32, 5-((6-Amino-5-cyclohex-3-ene-1-carboxypyrimidin-4-yl)amino)-6-methoxy-1H-indazole hydrochloride] | 0.166 µM
COc1cc2c(cnn2C(=O)C2CCCCC2)cc1Nc1cc(NC(=O)C2CC2)ncn1 [Compound 8, 1-Cyclohexanoyl-5-(6-cyclopropionamidopyrimidin-4-ylamino)-6-methoxyindazole] | 0.0641 µM
COc1cc2nn(C(=O)C3CC3)cc2cc1Nc1cc(NC(=O)C2CC2)ncn1 [Compound 15, 2-Cyclopropanoyl-5-(6-cyclopropionamidopyrimidin-4-ylamino)-6-methoxyindazole] | 0.021 µM
COc1cc2[nH]ncc2cc1Nc1cc(N)ncn1 [Compound 9, 5-(6-aminopyrimidin-4-ylamino)-6-methoxy-1H-indazole] | 0.294 µM
CCOC(=O)c1c(N)ncnc1Nc1cc2cn[nH]c2cc1OC [Compound 36, 5-((6-Amino-5-ethoxycarbonylpyrimidin-4-yl)amino)-6-methoxy-1H-indazole dicarboxylate] | 0.0078 µM
CCOC(=O)c1c(NC(C)=O)ncnc1Nc1cc2cnn(C(=O)OC(C)(C)C)c2cc1OC [Compound 37, 1-tert-Butoxycarbonyl-5-((6-(acetylamino)-5-ethoxycarbonylpyrimidin-4-yl)amino)-6-methoxyindazole] | 0.0238 µM
COc1cc2c(cnn2C(=O)C2CC2)cc1Nc1cc(NC(=O)C2CC2)ncn1 [Compound 14, 1-Cyclopropanoyl-5-(6-cyclopropionamidopyrimidin-4-ylamino)-6-methoxyindazole] | 1.11 µM
COc1cc2[nH]ncc2cc1Nc1ncnc(N)c1OC [Compound 46, 5-((6-Amino-5-methoxypyrimidin-4-yl)amino)-6-methoxy-1H-indazole] | 0.0494 µM
COc1cc2[nH]ncc2cc1Nc1cc(Nc2cnccn2)ncn1 [Compound 29, 5-(6-(Pyrazin-2-ylamino)pyrimidin-4-ylamino)-6-methoxy-1H-indazole] | 0.0579 µM
COc1cc2[nH]ncc2cc1Nc1ncnc(N)c1C(=O)N(C)C [Compound 40] | 1.14 µM
COc1cc2[nH]ncc2cc1Nc1ncnc(N)c1C(=O)N1CCOCC1 [Compound 41] | 1.05 µM
COc1cc2[nH]ncc2cc1Nc1cc(NC(=O)C(C)(C)C)ncn1 [Compound 12, 5-(6-Pivaloylaminopyrimidin-4-ylamino)-6-methoxy-1H-indazole] | 0.729 µM
COc1cc2[nH]ncc2cc1Nc1ncnc(N)c1C1=CCC(C(=O)N2CCN(C)CC2)CC1 (centres unmarked) [Compound 33, 5-((6-Amino-5-cyclohex-3-en-1-yl (4-methylpiperazin-1-yl)methanylpyrimidin-4-yl)amino)-6-methoxy-1H-indazole formate] | 0.0947 µM
COc1cc2[nH]ncc2cc1Nc1cc(Nc2ccncn2)ncn1 [Compound 22, 5-(6-(pyrimidin-4-ylamino)pyrimidin-4-ylamino)-6-methoxy-1H-indazole formate] | 0.0233 µM
COc1cc2c(cnn2C(=O)OC(C)(C)C)cc1Nc1ncnc(N)c1-c1ccccn1 [Compound 43] | 0.264 µM
